Assay results as given in US20130095068A1, “AGENT FOR TREATING HCV INFECTION” (priority 2010, published 2013).
Entries after “also recorded” stand apart in the source; their conditions may differ.

Experiments:
[1] = Cytotoxicity, CytoTox-1 Cell Proliferation Assay in ET replicon cells; type: cell-based; settings: human, luc-ubi-neo/ET HCV genotype 1b subgenomic replicon cells; Test compound alone, 50% reduction in viable cells, maximum concentration 1.1 μM
Protocol: The HCV subgenome replicon cells used were luc-ubi-neo/ET replicon cells, having the genotype 1b HCV auto-replicating subgenomic replicon, a luciferase reporter, ubiquitin, a neomycin phosphotransferase coding sequence, and three mutations for cell culturing (Pietschmann, T. et al., J. Virol. 76:4008-4021, 2002). The ET replicon cells were cultured in DMEM containing 10% FBS, 1% penicillin/streptomycin, 1% glutamine, and 250 μg/mL G418 in an incubator at 37° C., 5% CO2. For culturing with a Test compound of formula (I), it was performed under the same conditions in DMEM containing 5% FBS, 1% penicillin/streptomycin and 1% glutamine. The ET replicon cells were cultured in two 96-well plates, at 5000 cell/well, separately. On the following day, the Test compound alone diluting to different concentrations with a maximum concentration of 1.1 μM, was added to one plate, while human recombinant Interferon-α-2b (rIFNα-2b) at a fixed concentration of 0.1 IU/mL was added to another plate with the Test compound, simultaneously. At 72 hours after addition, the luciferase activity indicating amplification of HCV mRNA was measured. The cytotoxicity was measured with a CytoTox-1 Cell Proliferation Assay (Promega Corporation). […]

[2] = tested on: genotype 1b HCV auto-replicating subgenomic replicon (luc-ubi-neo/ET replicon cells); experiment: Replicon assay, luciferase activity in luc-ubi-neo/ET HCV subgenome replicon cells; type: cell-based, Hepatitis C virus; settings: for EC50: Hepatitis C virus, 72 h, read-out: HCV replication inhibitory activity EC50; for Selectivity IC50/EC50 / Luciferase activity: Test compound alone; for Luciferase activity: 72 hours, percentage of solvent alone
Description: The inhibitory-effect on HCV replication and the cytotoxicity of a compound of formula (I) of the invention was examined by a replicon assay using HCV subgenome replicon cells.
The HCV subgenome replicon cells used were luc-ubi-neo/ET replicon cells, having the genotype 1b HCV auto-replicating subgenomic replicon, a luciferase reporter, ubiquitin, a neomycin phosphotransferase coding sequence, and three mutations for cell culturing (Pietschmann, T. et al., J. Virol. 76:4008-4021, 2002). The ET replicon cells were cultured in DMEM containing 10% FBS, 1% penicillin/streptomycin, 1% glutamine, and 250 μg/mL G418 in an incubator at 37° C., 5% CO2. For culturing with a Test compound of formula (I), it was performed under the same conditions in DMEM containing 5% FBS, 1% penicillin/streptomycin and 1% glutamine. The ET replicon cells were cultured in two 96-well plates, at 5000 cell/well, separately. On the following day, the Test compound alone diluting to different concentrations with a maximum concentration of 1.1 μM, was added to one plate, while human recombinant Interferon-α-2b (rIFNα-2b) at a fixed concentration of 0.1 IU/mL was added to another plate with the Test compound, simultaneously. At 72 hours after addition, the luciferase activity indicating amplification of HCV mRNA was measured. The cytotoxicity was measured with a CytoTox-1 Cell Proliferation Assay (Promega Corporation).
The luciferase activities, for the compound of formula (I) alone and for a combination of the compound of formula (I) and rIFNα-2b, were shown in Table 1 as percentage with respect to luciferase activity when using the solvent alone. The HCV replication inhibitory-activity was determined as the concentration which produced 50% inhibition of HCV replicon (EC50), and the cytotoxicity was determined as the concentration which produced 50% reduction in viable cells (IC50), while the selectivity was determined as the value of IC50/EC50; the results are summarized in Table 2.

LucNeo#2 replicon cells = experiment: Cytotoxicity, Alamar Blue in LucNeo#2 replicon cells; type: cell-based; settings: 72 hours, percentage of solvent-treated group
Protocol: (§1) LucNeo#2 replicon cells cultured to confluency were recovered by trypsin treatment, and were spread on a collagen-coated plate at a density of 20,000 cells/mL. The cell culture was conducted in an incubator at 37° C., 5% CO2, with 10% FCS/DMEM (containing mixed solution of penicillin-streptomycin, G418 and a non-essential amino acid). After 24 hours, the cells were rinsed and a compound of formula (I) was added as Test compound to final concentrations of 3.3 μM or 10 μM. At 72 hours after addition of the Test compound, the cells of one plate were rinsed, the cells were lysed with M-PER, and the intracellular luciferase activity was measured using a Promega kit. An Alamar Blue solution was also added to cells cultured under the same conditions, and the cytotoxicity was examined.
(§2) The intracellular luciferase activity and the Alamar Blue signal for cytotoxicity at 72 hours after Test compound addition were shown in Table 3 as a percentage with respect to the solvent-treated group.

HCV 1b genotype = experiment: Lowering effect on serum HCV RNA levels in HCV-infected human hepatocyte-transplanted mice (PXB mice); type: in vivo, Hepatitis C virus; settings: oral; for Change in serum HCV RNA levels, average: day 14 versus day 0
Protocol: The lowering effect on serum HCV RNA levels was measured to determine the HCV replication inhibitory-effect of a compound of formula (I) of the invention were determined by measuring the serum HCV RNA levels.
Human hepatocyte-transplanted model mice (PXB mice) were prepared from uPA^+/+/SCID mice as host mice. The uPA^+/+/SCID mice are characterized by a combination of liver damage and serious immune deficiency complications. Commercially available frozen human hepatocytes (BD Biosciences, MA, USA) were grafted by infusion into the spleens of male or female uPA^+/+/SCID mice that had reached a postnatal age of 2 to 4 weeks, to create human hepatocyte-transplanted mice (PXB mice) having at least 70% of the mouse liver parenchymal cells replaced with human hepatocytes. […] HCV 1b genotype-infected patient serum (PhoenixBio) was injected through the orbital socket to a virus titer of 1×10^4 copies/mouse as measured by RT-PCR (Life Technologies Corporation, Carlsbad, USA), for the HCV infection. […] […] The number of mice per group was five. The solvent alone was used as a negative control. Administration was done once per day for 14 consecutive days. With the initial administration as day 0, blood was collected on day 0, 1, 3, 7, 10, 14, 17 and 21, and the serum HCV RNA levels were measured.
The percent change of blood HCV RNA levels in 14 days, which was 24 hours after final dosing (13 day), from those in day 0, which was predose, was calculated for each individual.

[3] = tested on: HCV subgenomic replicon (LucNeo#2 replicon cells); experiment: Replicon assay, intracellular luciferase activity in LucNeo#2 replicon cells; type: cell-based, Hepatitis C virus; settings: for Luciferase activity: 72 hours, percentage of solvent-treated group; for HCV replication inhibitory-activity (in words): LucNeo#2 replicon cells, 3.3 and 10 μM
Description: The inhibitory-effect on HCV replication and the cytotoxicity of a compound of formula (I) of the invention were examined by a replicon assay method using different HCV subgenomic replicon cells from Example 1, specifically LucNeo#2 replicon cells. The LucNeo#2 replicon cells are reporter cells created with the same concept as the luc-ubi-neo/ET replicon cells used in Test Example 1, and are utilized for analysis of the RNA replication mechanism of HCV or anti-HCV drug evaluation, but the gene sequence differs from that of luc-ubi-neo/ET replicon cells (Biochem. Biophys. Res. Commun. 343 (2006) 879-884).
as §1, §2

[4] = used in combination with rIFNα-2b

| Compound | IC50 at 72 h [1] [nM] | EC50 [2] [nM] | Selectivity IC50/EC50 [2] | Luciferase activity ([2]; 0.001 μM) [%] | Luciferase activity ([2]; 0.003 μM) [%] | Luciferase activity ([2]; 0.03 μM) [%] | Luciferase activity ([2]; 0.11 μM) [%] | Luciferase activity ([2]; 0.35 μM) [%] | Luciferase activity ([2]; 1.1 μM) [%] | HCV replication inhibitory-activity (in words) ([2]; Test compound used alone) | HCV replication inhibitory-activity (in words) [2, 4] | Cytotoxicity (Alamar Blue signal) (LucNeo#2 replicon cells; 3.3 μM) [%] | Cytotoxicity (Alamar Blue signal) (LucNeo#2 replicon cells; 10 μM) [%] | Change in serum HCV RNA levels, average (HCV 1b genotype; 10 mg/kg/day once per day for 14 days) [%] | Change in serum HCV RNA levels, average (HCV 1b genotype; 30 mg/kg/day once per day for 14 days) [%] | Change in serum HCV RNA levels, average (HCV 1b genotype; 100 mg/kg/day once per day for 14 days) [%] | Serum HCV RNA level (in words) (HCV 1b genotype; 14 days) | Luciferase activity ([3]; 3.3 μM) [%] | Luciferase activity ([3]; 10 μM) [%] | HCV replication inhibitory-activity (in words) [3] |
| --- | --- | --- | --- | --- | --- | --- | --- | --- | --- | --- | --- | --- | --- | --- | --- | --- | --- | --- | --- | --- |
| COc1cc(/C=C2\CCCN([C@@H](C)c3ccc(F)cc3)C2=O)ccc1-n1cnc(C)c1 [Test compound A, (E)-1-[(1S)-1-(4-fluorophenyl)ethyl]-3-[3-methoxy-4-(4-methyl-1H-imidazol-1-yl)benzylidene]piperidin-2-one] | > 1100 | 360 | >3.06 | 87 | 89 | 87 | 89 | 51 | 21 | approximately dose-dependent HCV replication inhibitory-activity; also recorded: potent HCV replication inhibitory-activity at lower concentrations than the concentrations for the cytotoxicity | more potent reduction of HCV replication with dose-dependent manner; also recorded: even more potent HCV replication inhibitory-activity at lower concentrations than the concentrations for the cytotoxicity | 100.00 | 101.50 | 73.0 | 50.4 | 32.6 | dose-dependent reduction in serum HCV RNA level | 116.60 | 42.80 | potent HCV replication inhibitory-activity by reducing the luciferase activity in a dose-dependent manner |
| COc1cc(/C=C2\CC[C@H]3COC[C@@H](c4cc(F)c(F)c(F)c4)N3C2=O)ccc1-n1cnc(C)c1 [Test compound B, (E)-(4R,9aS)-7-[3-methoxy-4-(4-methyl-1H-imidazol-1-yl)benzylidene]-4-(3,4,5-trifluorophenyl)hexahydropyrido[2,1-c][1,4]oxazin-6-one] | > 1100 | 310 | >3.55 | 72 | 73 | 62 | 68 | 48 | 30 | approximately dose-dependent HCV replication inhibitory-activity; also recorded: potent HCV replication inhibitory-activity at lower concentrations than the concentrations for the cytotoxicity | more potent reduction of HCV replication with dose-dependent manner; also recorded: even more potent HCV replication inhibitory-activity at lower concentrations than the concentrations for the cytotoxicity | 101.00 | 100.75 | – | – | – | – | 50.30 | 27.80 | potent HCV replication inhibitory-activity by reducing the luciferase activity in a dose-dependent manner |
